Experimental data as given in the supplement of paper PMC8976852.
± gives the standard deviation of the averaged measurements.

How the values were obtained:
Assay in all cases: activity (1 - area under the dose-response curve within the screened range) (fraction); higher = more sensitive
Details in all cases: treatment time: 72 h
HCM-SANG-0532-C20 = tested on: HCM-SANG-0532-C20 (colorectal cancer organoid)
Description: (§1)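 Patient-derived cancer organoids (colorectal and oesophageal, HCM-SANG models) were grown for up to 6 months in 5% or 80% ECM (BME-2), then seeded in 384-well plates on an ECM layer and treated with 72 compounds for 3 days. Each compound used a 7-point half-log dilution series spanning a 1000-fold range, in technical triplicate and biological duplicate. Dose-response curves were fitted with a non-linear mixed effects model; fits with RMSE > 0.3 were removed, and activity = 1 - AUC within the screened dose range (0 = no activity, 1 = maximum).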

HCM-SANG-0266-C20 = tested on: HCM-SANG-0266-C20 (colorectal cancer organoid)
Description: as §1

HCM-SANG-0270-C20 = tested on: HCM-SANG-0270-C20 (colorectal cancer organoid)
Description: as §1

HCM-SANG-0291-C15 = tested on: HCM-SANG-0291-C15 (oesophageal cancer organoid)
Description: as §1

[1] = ECM percentage in culture prior to screening 5 %
[2] = ECM percentage in culture prior to screening 80 %

Row | Compound | activity (HCM-SANG-0532-C20; [1]) | activity (HCM-SANG-0532-C20; [2]) | activity (HCM-SANG-0266-C20; [1]) | activity (HCM-SANG-0266-C20; [2]) | activity (HCM-SANG-0270-C20; [1]) | activity (HCM-SANG-0270-C20; [2]) | activity (HCM-SANG-0291-C15; [1]) | activity (HCM-SANG-0291-C15; [2])
1 | Nc1ccccc1NC(=O)c1ccc(CNC(=O)OCc2cccnc2)cc1 [Entinostat] | 0.0795 ± 0.022 | 0.102 ± 0.025 | 0.0903 ± 0.02 | 0.0905 ± 0.023 | 0.0723 ± 0.025 | 0.0687 ± 0.041 | 0.124 ± 0.045 | 0.119 ± 0.047
2 | c1cn2cc(-c3ccc4cn[nH]c4c3)nc(Nc3ccc(N4CCOCC4)cc3)c2n1 [Entospletinib] | 0.0354 ± 0.019 | 0.0256 ± 0.0054 | 0.0298 ± 0.01 | 0.0227 ± 0.0068 | 0.0261 ± 0.0085 | 0.0204 ± 0.0032 | 0.0238 ± 0.0074 | 0.0204 ± 0.0022
3 | C#Cc1cccc(Nc2ncnc3cc(OCCOC)c(OCCOC)cc23)c1 [Erlotinib] | 0.207 ± 0.091 | 0.209 ± 0.06 | 0.171 ± 0.037 | 0.129 ± 0.053 | 0.148 ± 0.1 | 0.121 ± 0.086 | 0.204 ± 0.026 | 0.198 ± 0.033
4 | C[C@]12CC[C@@H]3c4ccc(O)cc4C[C@@H](CCCCCCCCC[S+]([O-])CCCC(F)(F)C(F)(F)F)[C@H]3[C@@H]1CC[C@@H]2O (some centres undefined) [Fulvestrant] | 0.022 ± 0.0021 | 0.0273 ± 0.0072 | 0.0414 ± 0.019 | 0.0246 ± 0.0074 | 0.0292 ± 0.0081 | 0.0268 ± 0.015 | 0.0285 ± 0.013 | 0.0212 ± 0.0031
5 | Nc1ccn([C@@H]2O[C@H](CO)[C@@H](O)C2(F)F)c(=O)n1 [Gemcitabine] | 0.247 ± 0.042 | 0.423 ± 0.04 | 0.624 ± 0.097 | 0.465 ± 0.13 | 0.337 ± 0.13 | 0.234 ± 0.17 | 0.813 ± 0.021 | 0.801 ± 0.049
6 | CCNC(=O)C[C@@H]1N=C(c2ccc(Cl)cc2)c2cc(OC)ccc2-n2c(C)nnc21 [I-BET-762] | 0.0448 ± 0.021 | 0.0841 ± 0.035 | 0.121 ± 0.041 | 0.0782 ± 0.04 | 0.0441 ± 0.019 | 0.0339 ± 0.019 | 0.0724 ± 0.037 | 0.068 ± 0.015
7 | CCc1c2c(nc3ccc(OC(=O)N4CCC(N5CCCCC5)CC4)cc13)-c1cc3c(c(=O)n1C2)COC(=O)[C@]3(O)CC [Irinotecan] | 0.1 ± 0.035 | 0.0793 ± 0.037 | 0.0899 ± 0.035 | 0.0683 ± 0.022 | 0.0887 ± 0.063 | 0.079 ± 0.039 | 0.233 ± 0.019 | 0.18 ± 0.015
8 | Cc1cc(-c2ncc(CC(=O)Nc3ccc(-c4cnccn4)cn3)cc2C)ccn1 [LGK974] | 0.0269 ± 0.005 | 0.0397 ± 0.009 | 0.0334 ± 0.014 | 0.0329 ± 0.017 | 0.0409 ± 0.013 | 0.0485 ± 0.035 | 0.0263 ± 0.0099 | 0.0251 ± 0.0087
9 | CS(=O)(=O)CCNCc1ccc(-c2ccc3ncnc(Nc4ccc(OCc5cccc(F)c5)c(Cl)c4)c3c2)o1 [Lapatinib] | 0.143 ± 0.069 | 0.205 ± 0.052 | 0.21 ± 0.071 | 0.132 ± 0.082 | 0.157 ± 0.057 | 0.106 ± 0.073 | 0.207 ± 0.045 | 0.189 ± 0.022
10 | C[C@]1(O)C[C@@H](c2nc(-c3ccc4ccc(-c5ccccc5)nc4c3)c3c(N)nccn32)C1 [Linsitinib] | 0.033 ± 0.015 | 0.0378 ± 0.015 | 0.0577 ± 0.033 | 0.0295 ± 0.017 | 0.0341 ± 0.014 | 0.0245 ± 0.0092 | 0.0216 ± 0.0028 | 0.0248 ± 0.013
11 | CCNC(=O)c1noc(-c2cc(C(C)C)c(O)cc2O)c1-c1ccc(CN2CCOCC2)cc1 [Luminespib] | 0.338 ± 0.087 | 0.291 ± 0.014 | 0.319 ± 0.046 | 0.322 ± 0.024 | 0.111 ± 0.061 | 0.0622 ± 0.041 | 0.0294 ± 0.011 | 0.0466 ± 0.038
12 | C=CCn1c(=O)c2cnc(Nc3ccc(N4CCN(C)CC4)cc3)nc2n1-c1cccc(C(C)(C)O)n1 [MK-1775] | 0.156 ± 0.019 | 0.19 ± 0.027 | 0.407 ± 0.048 | 0.348 ± 0.044 | 0.255 ± 0.042 | 0.205 ± 0.11 | 0.257 ± 0.036 | 0.24 ± 0.051
13 | NC1(c2ccc(-c3nc4ccn5c(=O)[nH]nc5c4cc3-c3ccccc3)cc2)CCC1 [MK-2206] | 0.158 ± 0.11 | 0.168 ± 0.034 | 0.223 ± 0.074 | 0.152 ± 0.095 | 0.076 ± 0.014 | 0.0487 ± 0.04 | 0.086 ± 0.048 | 0.0594 ± 0.025
14 | O=c1cc(N2CCOCC2)oc2c(-c3cccc4c3sc3ccccc34)cccc12 [NU7441] | 0.124 ± 0.045 | 0.119 ± 0.022 | 0.104 ± 0.032 | 0.063 ± 0.018 | 0.0446 ± 0.03 | 0.0686 ± 0.032 | 0.0932 ± 0.037 | 0.0809 ± 0.029
15 | CC1(C)CCC(c2ccc(Cl)cc2)=C(CN2CCN(c3ccc(C(=O)NS(=O)(=O)c4ccc(N[C@H](CCN5CCOCC5)CSc5ccccc5)c(S(=O)(=O)C(F)(F)F)c4)cc3)CC2)C1 [Navitoclax] | 0.314 ± 0.045 | 0.288 ± 0.075 | 0.327 ± 0.03 | 0.358 ± 0.051 | 0.201 ± 0.033 | 0.188 ± 0.047 | 0.125 ± 0.032 | 0.121 ± 0.029
16 | Cc1cn(-c2cc(NC(=O)c3ccc(C)c(Nc4nccc(-c5cccnc5)n4)c3)cc(C(F)(F)F)c2)cn1 [Nilotinib] | 0.111 ± 0.036 | 0.104 ± 0.021 | 0.0558 ± 0.029 | 0.0445 ± 0.025 | 0.0302 ± 0.0098 | 0.0451 ± 0.018 | 0.0659 ± 0.035 | 0.0726 ± 0.03
17 | COc1ccc(C2=N[C@@H](c3ccc(Cl)cc3)[C@@H](c3ccc(Cl)cc3)N2C(=O)N2CCNC(=O)C2)c(OC(C)C)c1 [Nutlin-3a (-)] | 0.148 ± 0.039 | 0.203 ± 0.054 | 0.218 ± 0.046 | 0.193 ± 0.064 | 0.161 ± 0.034 | 0.0722 ± 0.033 | 0.0424 ± 0.021 | 0.0359 ± 0.015
18 | COc1cccc2cc(-c3nc([C@H]4CC[C@H](C(=O)O)CC4)n4ncnc(N)c34)[nH]c12 [OSI-027] | 0.0577 ± 0.024 | 0.0906 ± 0.013 | 0.141 ± 0.054 | 0.0937 ± 0.059 | 0.0587 ± 0.034 | 0.0504 ± 0.036 | 0.0395 ± 0.012 | 0.032 ± 0.014
19 | O=C(c1cc(Cc2n[nH]c(=O)c3ccccc23)ccc1F)N1CCN(C(=O)C2CC2)CC1 [Olaparib] | 0.0528 ± 0.018 | 0.0726 ± 0.027 | 0.0602 ± 0.028 | 0.0424 ± 0.017 | 0.0818 ± 0.017 | 0.0664 ± 0.027 | 0.0587 ± 0.015 | 0.0412 ± 0.017
20 | O=C(O)C(=O)O.[NH-][C@@H]1CCCC[C@H]1[NH-].[Pt+2] [Oxaliplatin] | 0.0448 ± 0.016 | 0.0692 ± 0.031 | 0.0673 ± 0.036 | 0.0486 ± 0.022 | 0.0594 ± 0.018 | 0.0493 ± 0.038 | 0.0391 ± 0.022 | 0.0459 ± 0.025
21 | COCC1(CO)C(=O)C2CCN1CC2 (centres undefined) [PRIMA-1MET] | 0.074 ± 0.023 | 0.0388 ± 0.016 | 0.0344 ± 0.016 | 0.0318 ± 0.016 | 0.0251 ± 0.01 | 0.0283 ± 0.0083 | 0.0344 ± 0.019 | 0.0328 ± 0.011
22 | CC(=O)O[C@H]1C(=O)[C@@]2(C)[C@H]([C@H](OC(=O)c3ccccc3)[C@]3(O)C[C@H](OC(=O)[C@H](O)[C@@H](NC(=O)c4ccccc4)c4ccccc4)C(C)=C1C3(C)C)[C@]1(OC(C)=O)CO[C@@H]1C[C@@H]2O [Paclitaxel] | 0.138 ± 0.058 | 0.256 ± 0.031 | 0.331 ± 0.06 | 0.317 ± 0.067 | 0.223 ± 0.051 | 0.218 ± 0.084 | 0.246 ± 0.044 | 0.27 ± 0.066
23 | CC(=O)c1c(C)c2cnc(Nc3ccc(N4CCNCC4)cn3)nc2n(C2CCCC2)c1=O [Palbociclib] | 0.0593 ± 0.019 | 0.102 ± 0.034 | 0.0791 ± 0.052 | 0.0779 ± 0.05 | 0.0934 ± 0.03 | 0.0559 ± 0.031 | 0.0779 ± 0.033 | 0.0409 ± 0.013
24 | Nc1nc2[nH]cc(CCc3ccc(C(=O)N[C@@H](CCC(=O)O)C(=O)O)cc3)c2c(=O)[nH]1 [Pemetrexed] | 0.0604 ± 0.023 | 0.0425 ± 0.012 | 0.0697 ± 0.056 | 0.0926 ± 0.047 | 0.117 ± 0.049 | 0.164 ± 0.1 | 0.0737 ± 0.036 | 0.0434 ± 0.025
25 | CS(=O)(=O)N1CCN(Cc2cc3nc(-c4cccc5[nH]ncc45)nc(N4CCOCC4)c3s2)CC1 [Pictilisib] | 0.12 ± 0.07 | 0.155 ± 0.039 | 0.198 ± 0.059 | 0.152 ± 0.068 | 0.0973 ± 0.037 | 0.0554 ± 0.033 | 0.0595 ± 0.032 | 0.0514 ± 0.019
26 | O=C1NC(=NCc2cccs2)S/C1=C\c1ccc2ncccc2c1 [RO-3306] | 0.117 ± 0.033 | 0.108 ± 0.016 | 0.123 ± 0.017 | 0.152 ± 0.035 | 0.0909 ± 0.041 | 0.0974 ± 0.033 | 0.0636 ± 0.017 | 0.0709 ± 0.026
27 | CN(C)C(=O)c1cc2cnc(Nc3ccc(N4CCNCC4)cn3)nc2n1C1CCCC1 [Ribociclib] | 0.0436 ± 0.036 | 0.0301 ± 0.0069 | 0.0335 ± 0.011 | 0.0512 ± 0.053 | 0.046 ± 0.028 | 0.0291 ± 0.019 | 0.0289 ± 0.0084 | 0.0323 ± 0.016
28 | N#CC[C@H](C1CCCC1)n1cc(-c2ncnc3[nH]ccc23)cn1 [Ruxolitinib] | 0.0295 ± 0.011 | 0.0236 ± 0.0026 | 0.0203 ± 0.00098 | 0.03 ± 0.01 | 0.0225 ± 0.0051 | 0.0229 ± 0.007 | 0.0206 ± 0.0044 | 0.0196 ± 0.0023
